The experiment relates to adult cycling cynomolgus macaques. As to the kind of experiment: animal model of intrauterine bleeding: IUS inserted in macaques, daily vaginal swabs scored for bleeding. It is filed as in vivo. The settings on record: Group 1: IUS releasing 2 μg per day of levonorgestrel, 9 monkeys. As for the experimental part: The effects of administering via an intrauterine system (IUS) levonorgestrel alone, or in combination with indomethacin, were tested in animal model of intrauterine bleeding. The study was conducted using three groups of adult cycling cynomolgus macaques. The macaques were monitored to record regular menstrual cycles. Scheduled (menses) and unscheduled uterine bleeding and spotting was assessed daily by vaginal swabs, and menstrual blood loss was quantified by vaginal tampons.
After about two menstrual cycles (about 60 days), the macaques were assigned to three separate groups and laparotomized on days 6-9 of the follicular phase. For each macaque, an IUS was inserted by hysterotomy into the uterine lumen and sutured in place. Group 1 included 9 monkeys that were given an IUS that released 2 μg per day of levonorgestrel. Group 2 included 8 monkeys that were given an IUS that released 2 μg per day of levonorgestrel and 10 μg per day of indomethacin. Group 3 included 7 monkeys that were given an IUS that released 2 μg per day of levonorgestrel and 30 μg per day of indomethacin.
The frequency and type of bleeding was assessed by daily vaginal swabs. FIGS. 9A-9B illustrate the results of the different types of bleedings. Gray-shaed cells represent positive swab or frank menses, which is the most heavy form of bleeding. Diagonal-lined cells represent light positive swab, which is an intermediated type of bleeding.
The gray-shaded cells that were assigned represent the heaviest form of bleeding were assigned a score of 2. The diagonal-lined cells represent an intermediate type of bleeding and were assigned a score of 1.
For evaluation of bleeding days, the first 7 days after insertion of the IUS were neglected, since the insertion procedure by surgery causes some bleeding that is unrelated to treatment effects. FIGS. 9A-9B include data for a period of 80 days after the IUS was inserted in each of the macaques.

The mark [1] stands for this setting: 80 days after insertion, first 7 days neglected.

`C#C[C@]1(O)CC[C@H]2[C@@H]3CCC4=CC(=O)CC[C@@H]4[C@H]3CC[C@@]21CC` [levonorgestrel]: the “average score for each of the macaques (heaviest bleeding = 2, intermediate = 1)” value turned out to be 11.9 and the “total score for all of the macaques (heaviest bleeding = 2, intermediate = 1)” value is 107. Under setting [1], the “average number of bleeding days per macaque” value is reported as 8.6 days and the “total number of bleeding days” value is given as 77 days.

For the origin of these results see US20170312219A1, “METHOD OF CONTRACEPTION” (Bayer Oy, priority 2008, published 2017).
